According to patent US12410160B2 (Gilead Sciences, Inc., priority 2021, dated 2025):

Key:
[1] = molecular target: human KHK-C (Homo sapiens (Human), UniProt P50053); test: KHK Biochemical Assay (IC50), ADP-Glo, KHK-C; conditions: ADP-Glo; average of at least two separate assays
Procedure, shortened: (§1)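 Luminescent ADP-Glo read-out of ADP made by His-tagged KHK (BL21 (DE3) expression, Ni-NTA). Enzyme and compound sat together 30 min before ATP/fructose addition, then reacted 4 h at RT in Hepes pH 7.4 buffer with KCl, MgCl2, Triton-X. Quench 1 h, detection 1 h.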

[2] = molecular target: human KHK-A (Homo sapiens (Human), UniProt P50053); test: KHK Biochemical Assay (IC50), ADP-Glo, KHK-A; conditions: ADP-Glo; average of at least two separate assays
Procedure, shortened: as §1

human KHK-C, sequence (P50053 whole entry): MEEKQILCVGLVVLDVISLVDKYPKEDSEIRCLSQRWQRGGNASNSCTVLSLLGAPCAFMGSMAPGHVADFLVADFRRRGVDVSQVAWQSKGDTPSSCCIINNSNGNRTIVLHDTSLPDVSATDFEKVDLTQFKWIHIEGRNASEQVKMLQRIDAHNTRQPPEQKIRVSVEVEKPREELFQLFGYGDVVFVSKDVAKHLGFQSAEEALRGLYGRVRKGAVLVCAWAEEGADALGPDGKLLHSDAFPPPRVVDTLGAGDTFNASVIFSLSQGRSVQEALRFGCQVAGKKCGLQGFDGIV
human KHK-A, sequence (P50053 other isoform, or with tags, fused parts or gaps): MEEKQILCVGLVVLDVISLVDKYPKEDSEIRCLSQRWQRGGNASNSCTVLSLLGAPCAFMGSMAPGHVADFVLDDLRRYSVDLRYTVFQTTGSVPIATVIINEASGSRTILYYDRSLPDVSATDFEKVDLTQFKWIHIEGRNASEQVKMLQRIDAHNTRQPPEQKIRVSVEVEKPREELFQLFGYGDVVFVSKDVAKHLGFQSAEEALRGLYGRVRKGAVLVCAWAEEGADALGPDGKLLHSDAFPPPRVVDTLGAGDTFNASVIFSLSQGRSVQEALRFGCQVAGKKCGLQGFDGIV

Row | IC50 [1] | IC50 [2] | SMILES
1 | 2230 nM | 937 nM | c1ccc(-c2nc(C3CCC3)nc3c2CCC3)cc1 [Example 97, 2-cyclobutyl-4-phenyl-6,7-dihydro-5H-cyclopenta[d]pyrimidine]
2 | > 5000 nM | > 5000 nM | c1ccc(-c2nc(C3CC4CCC3C4)nc3c2CCC3)cc1 (stereo not drawn) [Example 98, 2-(bicyclo[2.2.1]heptan-2-yl)-4-phenyl-6,7-dihydro-5H-cyclopenta[d]pyrimidine]
3 | > 5000 nM | > 5000 nM | c1ccc(-c2nc(C3CNC3)nc3c2CCC3)cc1 [Example 99, 2-(azetidin-3-yl)-4-phenyl-6,7-dihydro-5H-cyclopenta[d]pyrimidine]
4 | 161 nM | 161 nM | Cc1nnc(-c2ccc(-c3nc(N4CC[C@@H]4C)nc4c3CCC4)cc2)o1 [Example 100, (S)-2-methyl-5-(4-(2-(2-methylazetidin-1-yl)-6,7-dihydro-5H-cyclopenta[d]pyrimidin-4-yl)phenyl)-1,3,4-oxadiazole]
5 | 119 nM | 69.1 nM | C[C@H]1CCN1c1nc2c(c(-c3ccc(-c4nccn4C)cc3)n1)CCC2 [Example 101, (S)-4-(4-(1-methyl-1H-imidazol-2-yl)phenyl)-2-(2-methylazetidin-1-yl)-6,7-dihydro-5H-cyclopenta[d]pyrimidine]
6 | 420 nM | 279 nM | C[C@H]1CCN1c1nc2c(c(-c3ccc(-n4cccn4)cc3)n1)CCC2 [Example 102, (S)-4-(4-(1H-pyrazol-1-yl)phenyl)-2-(2-methylazetidin-1-yl)-6,7-dihydro-5H-cyclopenta[d]pyrimidine]
7 | 1280 nM | 707 nM | C[C@H]1CCN1c1nc2c(c(-c3ccc(-c4ccn[nH]4)cc3)n1)CCC2 [Example 103, (S)-4-(4-(1H-pyrazol-5-yl)phenyl)-2-(2-methylazetidin-1-yl)-6,7-dihydro-5H-cyclopenta[d]pyrimidine]
8 | 205 nM | 253 nM | CC1CN(c2nc3c(c(-c4ccc(C(N)=O)cc4)n2)CCC3)C1C (stereo not drawn) [Example 105, 4-(2-(2,3-dimethylazetidin-1-yl)-6,7-dihydro-5H-cyclopenta[d]pyrimidin-4-yl)benzamide]
9 | 2540 nM | 3200 nM | C[C@@H]1CN(c2nc3c(c(-c4ccc(C(N)=O)cc4)n2)CCC3)[C@@H]1C [Example 109, 4-(2-((2R,3R)-2,3-dimethylazetidin-1-yl)-6,7-dihydro-5H-cyclopenta[d]pyrimidin-4-yl)benzamide]
10 | 136 nM | 322 nM | Cc1nc2cc(-c3nc(N4CC[C@@H]4C)nc4c3CCC4)ccc2s1 [Example 110, (S)-2-methyl-5-(2-(2-methylazetidin-1-yl)-6,7-dihydro-5H-cyclopenta[d]pyrimidin-4-yl)benzo[d]thiazole]
11 | 152 nM | 186 nM | C#CC1CCN1c1nc2c(c(-c3ccc(C(N)=O)cc3)n1)CCC2 (stereo not drawn) [Example 111, 4-(2-(2-ethynylazetidin-1-yl)-6,7-dihydro-5H-cyclopenta[d]pyrimidin-4-yl)benzamide]
12 | 68.8 nM | 103 nM | C[C@H]1[C@H](O)CN1c1nc2c(c(-c3cccc(C4CC4C(N)=O)c3)n1)CCC2 (stereo partly drawn) [Example 112, 2-(3-(2-((2S,3R)-3-hydroxy-2-methylazetidin-1-yl)-6,7-dihydro-5H-cyclopenta[d]pyrimidin-4-yl)phenyl)cyclopropane-1-carboxamide]
13 | 39.8 nM | 54.6 nM | C[C@H]1CCN1c1nc2c(c(-c3cc(C(N)=O)cc(C(N)=O)c3)n1)CCC2 [Example 116, (S)-5-(2-(2-methylazetidin-1-yl)-6,7-dihydro-5H-cyclopenta[d]pyrimidin-4-yl)isophthalamide]
14 | 3780 nM | 4780 nM | CC1=C(c2nc3c(c(-c4ccc(C(N)=O)cc4)n2)CCC3)CCC1=O [Example 117, 4-(2-(2-methyl-3-oxocyclopent-1-en-1-yl)-6,7-dihydro-5H-cyclopenta[d]pyrimidin-4-yl)benzamide]
15 | 42.7 nM | 46.1 nM | C[C@H]1CCN1c1nc2c(c(-c3ccc4c(O)n[nH]c4c3)n1)CCC2 [Example 120, (S)-6-(2-(2-methylazetidin-1-yl)-6,7-dihydro-5H-cyclopenta[d]pyrimidin-4-yl)-1H-indazol-3-ol]
16 | 219 nM | 308 nM | C[C@H]1[C@H](O)CN1c1nc2c(c(-c3ccc4c(c3)CN(C)C4=O)n1)CCC2 [Example 194, 5-[2-[(2S,3R)-3-hydroxy-2-methyl-azetidin-1-yl]-6,7-dihydro-5H-cyclopenta[d]pyrimidin-4-yl]-2-methyl-isoindolin-1-one]

Row | IC50 [1] | IC50 [2] | SMILES
17 | 98.3 nM | 124 nM | C[C@H]1[C@H](F)CN1c1nc2c(c(-c3ccc(S(N)(=O)=O)cc3)n1)CCC2 [Example 198, 4-[2-[(2S,3R)-3-fluoro-2-methyl-azetidin-1-yl]-6,7-dihydro-5H-cyclopenta[d]pyrimidin-4-yl]benzenesulfonamide]
18 | 149 nM | 282 nM | C[C@H]1[C@H](O)CN1c1nc2c(c(-c3ccc(S(N)(=O)=O)cc3)n1)CCC2 [Example 199, 4-[2-[(2S,3R)-3-hydroxy-2-methyl-azetidin-1-yl]-6,7-dihydro-5H-cyclopenta[d]pyrimidin-4-yl]benzenesulfonamide]
19 | 108 nM | 79.9 nM | C[C@H]1CCN1c1nc2c(c(-c3cncc(S(N)(=O)=O)c3)n1)CCC2 [Example 205, 5-[2-[(2S)-2-methylazetidin-1-yl]-6,7-dihydro-5H-cyclopenta[d]pyrimidin-4-yl]pyridine-3-sulfonamide]
20 | 5590 nM | 10500 nM | C[C@H]1CCN1c1nc(-c2ccccc2)c2cccnc2n1 [Example 212, 2-[(2S)-2-methylazetidin-1-yl]-4-phenyl-pyrido[2,3-d]pyrimidine]
21 | 37.7 nM | 37.5 nM | CNS(=O)(=O)c1cccc(-c2nc(N3CC[C@@H]3C)nc3c2CCC3)c1 [Example 214, N-methyl-3-[2-[(2S)-2-methylazetidin-1-yl]-6,7-dihydro-5H-cyclopenta[d]pyrimidin-4-yl]benzenesulfonamide]
22 | 106 nM | 78.9 nM | C[C@H]1CCN1c1nc2c(c(-c3cccc(S(=O)(=O)N(C)C)c3)n1)CCC2 [Example 215, N,N-dimethyl-3-[2-[(2S)-2-methylazetidin-1-yl]-6,7-dihydro-5H-cyclopenta[d]pyrimidin-4-yl]benzenesulfonamide]
23 | 485 nM | 418 nM | C[C@H]1CCN1c1nc2c(c(-c3cccc(C(=O)NCc4ccccc4)c3)n1)CCC2 [Example 218, N-benzyl-3-[2-[(2S)-2-methylazetidin-1-yl]-6,7-dihydro-5H-cyclopenta[d]pyrimidin-4-yl]benzamide]
24 | 79.2 nM | 75.1 nM | C[C@H]1CCN1c1nc2c(c(-c3ccc4c(c3)CCN(C)C4=O)n1)CCC2 [Example 222, (S)-2-methyl-6-(2-(2-methylazetidin-1-yl)-6,7-dihydro-5H-cyclopenta[d]pyrimidin-4-yl)-3,4-dihydroisoquinolin-1(2H)-one]
25 | 143 nM | 159 nM | C[C@H]1CCN1c1nc2c(c(-c3cccc(CNC(=O)C(C)(C)O)c3)n1)CCC2 [Example 228, 2-hydroxy-2-methyl-N-[[3-[2-[(2S)-2-methylazetidin-1-yl]-6,7-dihydro-5H-cyclopenta[d]pyrimidin-4-yl]phenyl]methyl]propanamide]
26 | 95.7 nM | 108 nM | C[C@@H](O)C(=O)NCc1cccc(-c2nc(N3CC[C@@H]3C)nc3c2CCC3)c1 [Example 229, (2R)-2-hydroxy-N-[[3-[2-[(2S)-2-methylazetidin-1-yl]-6,7-dihydro-5H-cyclopenta[d]pyrimidin-4-yl]phenyl]methyl]propanamide]
27 | 107 nM | 96.7 nM | C[C@H](O)C(=O)NCc1cccc(-c2nc(N3CC[C@@H]3C)nc3c2CCC3)c1 [Example 230, (2S)-2-hydroxy-N-[[3-[2-[(2S)-2-methylazetidin-1-yl]-6,7-dihydro-5H-cyclopenta[d]pyrimidin-4-yl]phenyl]methyl]propanamide]
28 | 9.7 nM | 55.7 nM | C[C@H]1CCN1c1nc2c(c(-c3ccc(C4CNC4)cc3)n1)CCC2 [Example 233, 4-[4-(azetidin-3-yl)phenyl]-2-[(2S)-2-methylazetidin-1-yl]-6,7-dihydro-5H-cyclopenta[d]pyrimidine]
29 | 70.6 nM | 117 nM | C[C@H]1CCN1c1nc2c(c(-c3ccc4c(c3)C(=O)NS4(=O)=O)n1)CCC2 [Example 239, (S)-5-(2-(2-methylazetidin-1-yl)-6,7-dihydro-5H-cyclopenta[d]pyrimidin-4-yl)benzo[d]isothiazol-3(2H)-one 1,1-dioxide]
30 | 1070 nM | 803 nM | C[C@H]1CCN1c1nc2c(c(-c3ccc4nc(C(F)(F)F)[nH]c4c3)n1)CCC2 [Example 241, 6-[2-[(2S)-2-methylazetidin-1-yl]-6,7-dihydro-5H-cyclopenta[d]pyrimidin-4-yl]-2-(trifluoromethyl)-1H-benzimidazole]
31 | 135 nM | 98.6 nM | C[C@H]1CCN1c1nc2c(c(-c3ccc(CS(N)(=O)=O)cc3)n1)CCC2 [Example 242, [4-[2-[(2S)-2-methylazetidin-1-yl]-6,7-dihydro-5H-cyclopenta[d]pyrimidin-4-yl]phenyl]methanesulfonamide]

Row | SMILES | IC50 [1] | IC50 [2]
32 | C[C@@H]1[C@@H](C)CN1c1nc2c(c(-c3ccc(C(N)=O)cc3)n1)CCC2 [Example 108] | 466 nM | 594 nM
33 | C[C@H]1CCN1c1nc2c(c(-c3cccc(C45CCC(C4)C5C(=O)O)c3)n1)CCC2 (stereo partly drawn) [Example 115, 1-(3-(2-((S)-2-methylazetidin-1-yl)-6,7-dihydro-5H-cyclopenta[d]pyrimidin-4-yl)phenyl)bicyclo[2.1.1]hexane-5-carboxylic acid] | 109 nM | 94.1 nM
